Columns and labels:
[1] = compound: C=CCn1c(=O)c2cnc(Nc3ccc(N4CCN(C)CC4)cc3)nc2n1-c1cccc(C(C)(C)O)n1 [AZD1775]
[2] = compound: CC(=O)Nc1cccc(-n2c(=O)n(C3CC3)c(=O)c3c(Nc4ccc(I)cc4F)n(C)c(=O)c(C)c32)c1
[3] = compound: CC(C)Nc1cc(-c2c[nH]c(C(=O)N[C@H](CO)c3cccc(Cl)c3)c2)c(Cl)cn1 [BVD523]
[4] = compound: CCCCOc1c(C(=O)c2c(F)cc(C)cc2F)c[nH]c2nncc1-2
[5] = compound: T1, CN(C)C/C=C/C(=O)Nc1ccc(C(=O)N2CCC[C@@H](Nc3ncc(Cl)c(-c4c[nH]c5ccccc45)n3)C2)cc1 [THZ531]
[6] = compound: T2, CN(C)C/C=C/C(=O)Nc1ccc(C(=O)Nc2cccc(Nc3ncc(Cl)c(-c4c[nH]c5ccccc45)n3)c2)cc1 [THZ1]
[7] = compound: CN1CCN(CCOc2cc(OC3CCOCC3)c3c(Nc4c(Cl)ccc5c4OCO5)ncnc3c2)CC1 [Saracatinib/AZD0530]
[8] = compound: CNCc1ccc(-c2[nH]c3cc(F)cc4c3c2CCNC4=O)cc1 [Rucaparib]
[9] = compound: CO[C@@H](C)Cn1c(=O)n(C)c2cnc3ccc(-c4cncc(C(C)(C)O)c4)cc3c21
[10] = compound: COc1cc2c(Oc3ccc4[nH]c(C)cc4c3F)ncnc2cc1OCCCN1CCCC1 [Cediranib/AZD2171]
[11] = compound: COc1ccc2c(c1)[C@]1(C[C@H]1c1ccc3c(/C=C/c4ccc(CN5C[C@@H](C)O[C@@H](C)C5)cc4)n[nH]c3c1)C(=O)N2
[12] = compound: Cc1nc(NC(=O)N2CCC[C@H]2C(N)=O)sc1-c1ccnc(C(C)(C)C(F)(F)F)c1 [Alpelisib/BYL719]
[13] = compound: C=CC(=O)Nc1ccc(C(=O)Nc2[nH]nc3c2CN(C(=O)N[C@H](CN(C)C)c2ccccc2)C3(C)C)cc1 [YKL-5-124]; assay: increase in dead-cell fraction, 72 h; higher = more death;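 also: breast cancer cell lines in 384-well plates, stained with Hoechst plus LIVE/DEAD far red dye and imaged, cells above an LDR intensity threshold counted dead, Hoechst-negative corpses included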
[14] = compound: CC(=O)c1c(C)c2cnc(Nc3ccc(N4CCN(CCOCCOCCOCCNC(=O)COc5cccc6c5C(=O)N(C5CCC(=O)NC5=O)C6=O)CC4)cn3)nc2n(C2CCCC2)c1=O [BSJ-03-123]; assay: as above
[15] = compound: CC(=O)c1c(C)c2cnc(Nc3ccc(N4CCNCC4)cn3)nc2n(C2CCCC2)c1=O; assay: as above
[16] = compound: CCOc1cc2ncc(C#N)c(Nc3ccc(OCc4ccccn4)c(Cl)c3)c2cc1NC(=O)/C=C/CN(C)C [Neratinib/HKI272]; assay: as above
[17] = compound: CCc1cnn2c(NCc3ccc[n+]([O-])c3)cc(N3CCCC[C@H]3CCO)nc12; assay: as above
[18] = compound: CN(C)C(=O)c1cc2cnc(Nc3ccc(N4CCNCC4)cn3)nc2n1C1CCCC1 [LEE011/Ribociclib]; assay: as above
[19] = compound: T1, THZ531; assay: as above
[20] = compound: T2, THZ1; assay: as above
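For GR50, 72 h in this document: breast cancer and non-malignant breast epithelial cell lines, Deep Dye Drop or Dye Drop imaging, nine half-log doses, GR normalized to time-zero plates and DMSO-only controls.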

HTERT_HME1
GR50, 72 h [1]: 0.302 µM
GR50, 72 h [2]: 0.00573 µM
GR50, 72 h [3]: 0.213 µM
GR50, 72 h [4]: 0.0012 µM
GR50, 72 h [5]: 0.22 µM
GR50, 72 h [6]: 0.00442 µM
GR50, 72 h [7]: 7.23 µM
GR50, 72 h [8]: > 10 µM
GR50, 72 h [9]: 0.00274 µM
GR50, 72 h [10]: 7.57 µM
GR50, 72 h [11]: 0.0011 µM
GR50, 72 h [12]: 6.04 µM
increase in dead-cell fraction ([13]; 0.001 µM): 0.0989
increase in dead-cell fraction ([13]; 0.003162 µM): 0.131
increase in dead-cell fraction ([13]; 0.01 µM): 0.165
increase in dead-cell fraction ([13]; 0.03162 µM): 0.151
increase in dead-cell fraction ([13]; 0.1 µM): 0.181
increase in dead-cell fraction ([13]; 0.3162 µM): 0.224
increase in dead-cell fraction ([13]; 1 µM): 0.144
increase in dead-cell fraction ([13]; 3.162 µM): 0.293
increase in dead-cell fraction ([13]; 10 µM): 0.304
increase in dead-cell fraction ([14]; 0.001 µM): 0.0124
increase in dead-cell fraction ([14]; 0.003162 µM): -0.0077
increase in dead-cell fraction ([14]; 0.01 µM): 0.0297
increase in dead-cell fraction ([14]; 0.03162 µM): 0.0411
increase in dead-cell fraction ([14]; 0.1 µM): 0.0394
increase in dead-cell fraction ([14]; 0.3162 µM): 0.0338
increase in dead-cell fraction ([14]; 1 µM): 0.131
increase in dead-cell fraction ([14]; 3.162 µM): 0.119
increase in dead-cell fraction ([14]; 10 µM): 0.363
increase in dead-cell fraction ([15]; 0.0003162 µM): -0.0026
increase in dead-cell fraction ([15]; 0.001 µM): 0.0007
increase in dead-cell fraction ([15]; 0.003162 µM): -0.0013
increase in dead-cell fraction ([15]; 0.01 µM): -0.0019
increase in dead-cell fraction ([15]; 0.03162 µM): 0.0014
increase in dead-cell fraction ([15]; 0.1 µM): 0.0147
increase in dead-cell fraction ([15]; 0.3162 µM): 0.0168
increase in dead-cell fraction ([15]; 1 µM): 0.0267
increase in dead-cell fraction ([15]; 3.162 µM): 0.0446
increase in dead-cell fraction ([16]; 0.0003162 µM): -0.0015
increase in dead-cell fraction ([16]; 0.001 µM): 0.0018
increase in dead-cell fraction ([16]; 0.003162 µM): 0.0002
increase in dead-cell fraction ([16]; 0.01 µM): -0.0031
increase in dead-cell fraction ([16]; 0.03162 µM): -0.0026
increase in dead-cell fraction ([16]; 0.1 µM): 0.0016
increase in dead-cell fraction ([16]; 0.3162 µM): 0.0161
increase in dead-cell fraction ([16]; 1 µM): 0.0278
increase in dead-cell fraction ([16]; 3.162 µM): 0.106
increase in dead-cell fraction ([17]; 0.0001 µM): -0.0004
increase in dead-cell fraction ([17]; 0.0003162 µM): -0.0019
increase in dead-cell fraction ([17]; 0.001 µM): 0.0008
increase in dead-cell fraction ([17]; 0.003162 µM): 0.0059
increase in dead-cell fraction ([17]; 0.01 µM): 0.0263
increase in dead-cell fraction ([17]; 0.03162 µM): 0.571
increase in dead-cell fraction ([17]; 0.1 µM): 0.558
increase in dead-cell fraction ([17]; 0.3162 µM): 0.535
increase in dead-cell fraction ([17]; 1 µM): 0.511
increase in dead-cell fraction ([18]; 0.001 µM): 0.0038
increase in dead-cell fraction ([18]; 0.003162 µM): 0.0127
increase in dead-cell fraction ([18]; 0.01 µM): 0.0406
increase in dead-cell fraction ([18]; 0.03162 µM): 0.0372
increase in dead-cell fraction ([18]; 0.1 µM): 0.0514
increase in dead-cell fraction ([18]; 0.3162 µM): 0.0715
increase in dead-cell fraction ([18]; 1 µM): 0.0391
increase in dead-cell fraction ([18]; 3.162 µM): 0.0932
increase in dead-cell fraction ([18]; 10 µM): 0.132
increase in dead-cell fraction ([19]; 0.0001 µM): -0.0002
increase in dead-cell fraction ([19]; 0.0003162 µM): -0.0145
increase in dead-cell fraction ([19]; 0.001 µM): 0.0054
increase in dead-cell fraction ([19]; 0.003162 µM): -0.0171
increase in dead-cell fraction ([19]; 0.01 µM): -0.0178
increase in dead-cell fraction ([19]; 0.03162 µM): 0.0065
increase in dead-cell fraction ([19]; 0.1 µM): 0.0042
increase in dead-cell fraction ([19]; 0.3162 µM): 0.175
increase in dead-cell fraction ([19]; 1 µM): 0.386
increase in dead-cell fraction ([20]; 0.0001 µM): -0.0026
increase in dead-cell fraction ([20]; 0.0003162 µM): 0.0021
increase in dead-cell fraction ([20]; 0.001 µM): 0.0031
increase in dead-cell fraction ([20]; 0.003162 µM): 0.0375
increase in dead-cell fraction ([20]; 0.01 µM): 0.292
increase in dead-cell fraction ([20]; 0.03162 µM): 0.545
increase in dead-cell fraction ([20]; 0.1 µM): 0.528
increase in dead-cell fraction ([20]; 0.3162 µM): 0.548
increase in dead-cell fraction ([20]; 1 µM): 0.71
